Reference: US20080045514A1 (Cytovia, Inc., priority 2006, published 2008)

Experiments:
Type in all cases: cell-based
[1] = tested on: human lymphoma cell line Raji; assay: Caspase cascade activation (EC50), Raji; conditions: Homo sapiens, RAJI cells, read-out: caspase potency (EC50) RAJI
Summary of the method: (§1)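 Cells at 0.65×10^6 cells/mL exposed to compound at 0.016 to 10 μM final (1% DMSO) for 48 h at 37° C, 5% CO2. Caspase activity then read with 14 μM Ac-DEVD-R110 fluorogenic substrate in lysolecithin/DTT/PIPES pH 7.2 buffer at ex 485/em 530 nm after 3 h at room temperature. EC50 fitted sigmoidally from net RFU ratio to control.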

[2] = tested on: human B cell lymphoblastoid cell line Ramos; assay: Caspase cascade activation (EC50), Ramos; conditions: Homo sapiens, RAMOS cells, read-out: caspase potency (EC50) RAMOS
Summary of the method: as §1

[3] = tested on: human cancer cell line H1299; assay: Caspase cascade activation (EC50), H1299; conditions: NCI-H1299, H1299 cells, read-out: caspase potency (EC50) H1299
Summary of the method: as §1

[4] = tested on: human colon carcinoma cell line HCT116; assay: Inhibition of cell proliferation (GI50), HCT116; conditions: Homo sapiens; HCT 116 cells, 48 h, CellTiter-Glo
Summary of the method: (§2)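 Seed 4.4×10^4 cells/mL onto compound dilutions (final 1 nM to 10 μM). Incubate 48 h, 37 °C, 5% CO2. Add CellTiter-Glo, read luminescence. Compute GI50 from test signal normalised between 0.5 h starting signal and untreated control.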

[5] = tested on: human B cell lymphoblastoid cell line Ramos; assay: Inhibition of cell proliferation (GI50), Ramos; conditions: Homo sapiens; Ramos cells, 48 h, CellTiter-Glo
Summary of the method: as §2

[6] = tested on: human hepatocellular carcinoma cell line SNU398; assay: Caspase cascade activation (EC50), SNU398; conditions: Homo sapiens, SNU-398; SNU398 cells; caspase cascade activation; read-out: caspase potency (EC50) SNU398
Summary of the method: as §1

[7] = tested on: human breast cancer cell line T-47D; assay: Caspase cascade activation (EC50), T-47D; conditions: Homo sapiens; T47D cells; caspase cascade activation; read-out: caspase potency (EC50) T47D
Summary of the method: as §1

[8] = tested on: human breast cancer cell line T-47D; assay: Inhibition of cell proliferation (GI50), T47D; conditions: Homo sapiens; T47D cells, 48 h, CellTiter-Glo
Summary of the method: as §2

[9] = tested on: human colon carcinoma cell line HCT116; assay: Caspase cascade activation (EC50), HCT116; conditions: Homo sapiens, HCT-116; HCT116 cells; caspase cascade activation; read-out: caspase potency (EC50) HCT116
Summary of the method: as §1

[10] = tested on: human lymphoma cell line Raji; assay: Inhibition of cell proliferation (GI50), Raji; conditions: Homo sapiens; Raji cells, 48 h, CellTiter-Glo
Summary of the method: as §2

[11] = tested on: human leukemia cell line K562; assay: Inhibition of cell proliferation (GI50), K562; conditions: Homo sapiens; K562 cells, 48 h, CellTiter-Glo
Summary of the method: as §2

[12] = tested on: human lung cancer cell line H1299; assay: Inhibition of cell proliferation (GI50), H1299; conditions: NCI-H1299, H1299 cells, 48 h, CellTiter-Glo
Experimental: Human breast cancer cell lines T-47D, human hepatocellular carcinoma cell line SNU398, human colon carcinoma cell line HCT116, human lung cancer cell line H1299, human leukemia cell line K562, human lymphoma cell line Raji, human B cell lymphoblastoid cell line Ramos, and human Burkitt's lymphoma cell line Namalwa were grown and harvested as in Example 100. An aliquot of […] of cells (4.4×10^4 cells/mL) was added to a well of a 96-well microtiter plate containing 5 μL of a 10% DMSO in RPMI-1640 media solution containing 10 nM to 100 μM of 3-(2-chlorophenyl)-6-(3,4-methylenedioxyphenyl)-7H-[1,2,4]triazolo[3,4-b][1,3,4]thiadiazine (1 nM to 10 μM final). An aliquot of 45 μL of cells was added to a well of a 96-well microtiter plate containing 5 μL of a 10% DMSO in RPMI-1640 media solution without compound as the control sample for maximal cell proliferation (LMax). The samples were mixed by agitation and then incubated at 37° C. for 48 h in a 5% CO2-95% humidity incubator. After incubation, the samples were removed from the incubator and 25 μL of CellTiter-Glo™ reagent (Promega) was added. The samples were mixed by agitation and incubated at room temperature for 10-15 min. Plates were then read using a luminescent plate reader (Model SPECTRAfluor Plus, Tecan) to give Ltest values.
The samples were mixed by agitation and then incubated at 37° C. for 0.5 h in a 5% CO2-95% humidity incubator. After incubation, the samples were removed from the incubator and 25 μL of CellTiter-Glo™ reagent (Promega) was added. The samples were mixed by agitation and incubated at […] 10-15 min at room temperature in a 5% CO2-95% humidity incubator. Fluorescence was read as above, (LStart) defining luminescence for initial cell number used as baseline in GI50 determinations.
Calculation: GI50 (dose for 50% inhibition of cell proliferation) is the concentration where [(Ltest−LStart)/(LMax−LStart)]=0.5.

[13] = tested on: human Burkitt's lymphoma cell line Namalwa; assay: Inhibition of cell proliferation (GI50), Namalwa; conditions: Homo sapiens, Burkitts lymphoma cell; Namalwa cells, 48 h, CellTiter-Glo
Summary of the method: as §2

[14] = tested on: human Burkitt's lymphoma cell line Namalwa; assay: Caspase cascade activation (EC50), Namalwa; conditions: Homo sapiens, Burkitts lymphoma cell; Namalwa cells; caspase cascade activation; read-out: caspase potency (EC50) Namalwa
Summary of the method: as §1

[15] = tested on: human hepatocellular carcinoma cell line SNU398; assay: Inhibition of cell proliferation (GI50), SNU398; conditions: Homo sapiens; SNU 398 cells, 48 h, CellTiter-Glo
Summary of the method: as §2

SMILES	EC50 [1]	EC50 [2]	EC50 [3]	GI50 [4]	GI50 [5]	EC50 [6]	EC50 [7]	GI50 [8]	EC50 [9]	GI50 [10]	GI50 [11]	GI50 [12]	GI50 [13]	EC50 [14]	GI50 [15]
CCOc1cccc(-c2nnc3n2N=C(c2ccc(O)c(O)c2)CS3)c1 [Example C1, 3-(3-Ethoxyphenyl)-6-(3,4-dihydroxyphenyl)-7H-[1,2,4]triazolo[3,4-b][1,3,4]thiadiazine]	0.706 µM	0.925 µM	1.31 µM	2340 nM	1390 nM	1.22 µM	1.32 µM	1370 nM	> 10 µM	2890 nM	453 nM	1010 nM	2870 nM	–	–
Clc1ccccc1-c1nnc2n1N=C(c1ccc3c(c1)OCO3)CS2 [Example P, 3-(2-chlorophenyl)-6-(3,4-methylenedioxyphenyl)-7H-[1,2,4]triazolo[3,4-b][1,3,4]thiadiazine]	0.339 µM	0.289 µM	0.37 µM	884 nM	118 nM	0.189 µM	0.235 µM	175 nM	0.231 µM	426 nM	214 nM	202 nM	472 nM	0.123 µM	–
COc1ccc(C2=Nn3c(nnc3-c3ccc(Cl)cc3)SC2)cc1 [D, 3-(4-Chlorophenyl)-6-(4-methoxyphenyl)-7H-[1,2,4]triazolo[3,4-b][1,3,4]thiadiazine]	0.084 µM	0.063 µM	0.142 µM	2120 nM	21 nM	0.082 µM	0.315 µM	144 nM	0.13 µM	1500 nM	31 nM	42 nM	1500 nM	0.058 µM	–
COc1ccccc1-c1nnc2n1N=C(c1ccc(Br)cc1)CS2 [W, 3-(2-Methoxyphenyl)-6-(4-bromophenyl)-7H-[1,2,4]triazolo[3,4-b][1,3,4]thiadiazine]	0.322 µM	0.175 µM	0.552 µM	489 nM	141 nM	0.164 µM	0.313 µM	135 nM	0.243 µM	299 nM	178 nM	161 nM	314 nM	–	–
COc1ccc(C2=Nn3c(nnc3-c3cc(OC)c(OC)c(OC)c3)SC2)cc1OC [Example L1, 3-(3,4,5-Trimethoxyphenyl)-6-(3,4-dimethoxyphenyl)-7H-[1,2,4]triazolo[3,4-b][1,3,4]thiadiazine]	0.18 µM	0.13 µM	0.573 µM	200 nM	76 nM	0.132 µM	0.499 µM	200 nM	0.178 µM	150 nM	163 nM	339 nM	243 nM	0.122 µM	147 nM
COc1ccc(C2=Nn3c(nnc3-c3ccccc3OC)SC2)cc1OC [Example K1, 3-(2-Methoxyphenyl)-6-(3,4-dimethoxyphenyl)-7H-[1,2,4]triazolo[3,4-b][1,3,4]thiadiazine]	0.137 µM	0.088 µM	0.374 µM	253 nM	41 nM	0.07 µM	0.506 µM	461 nM	0.134 µM	39 nM	99 nM	191 nM	38 nM	0.106 µM	–
Cc1ccccc1-c1nnc2n1N=C(c1ccc3c(c1)OCO3)CS2 [Example M, 3-(2-Methylphenyl)-6-(3,4-methylenedioxyphenyl)-7H-[1,2,4]triazolo[3,4-b][1,3,4]thiadiazine]	0.399 µM	0.452 µM	0.42 µM	825 nM	164 nM	0.254 µM	0.282 µM	124 nM	0.317 µM	2220 nM	239 nM	214 nM	122 nM	0.144 µM	–
CCOc1ccc(C2=Nn3c(nnc3-c3ccc(Cl)cc3)SC2)cc1 [F, 3-(4-Chlorophenyl)-6-(4-ethoxyphenyl)-7H-[1,2,4]triazolo[3,4-b][1,3,4]thiadiazine]	0.155 µM	0.106 µM	0.275 µM	419 nM	15 nM	0.089 µM	0.561 µM	151 nM	0.141 µM	136 nM	47 nM	58 nM	120 nM	0.069 µM	–
COc1ccc(C2=Nn3c(nnc3-c3ccccc3C)SC2)cc1OC [K, 3-(2-Methylphenyl)-6-(3,4-dimethoxyphenyl)-7H-[1,2,4]triazolo[3,4-b][1,3,4]thiadiazine]	0.479 µM	0.272 µM	0.697 µM	–	–	0.316 µM	5.13 µM	2620 nM	0.578 µM	–	–	667 nM	–	0.267 µM	–
COc1ccc(C2=Nn3c(nnc3-c3ccc(Cl)cc3Cl)SC2)cc1OC [Example G1, 3-(2,4-Dichlorophenyl)-6-(3,4-dimethoxyphenyl)-7H-[1,2,4]triazolo[3,4-b][1,3,4]thiadiazine]	0.101 µM	0.107 µM	0.277 µM	81 nM	45 nM	0.075 µM	0.505 µM	130 nM	0.231 µM	90 nM	32 nM	48 nM	13 nM	0.078 µM	60 nM
COc1ccc(C2=Nn3c(nnc3-c3ccccc3Cl)SC2)cc1OC [N, 3-(2-Chlorophenyl)-6-(3,4-dimethoxyphenyl)-7H-[1,2,4]triazolo[3,4-b][1,3,4]thiadiazine]	0.502 µM	0.278 µM	0.755 µM	–	–	0.367 µM	2.4 µM	2540 nM	0.559 µM	–	–	510 nM	–	0.278 µM	–
